The values that follow come from US20080253996A1, “Use of Sdf-1 for the Treatment and/or Prevention of Neurological Diseases” (LABORATORIES SERONO SA, priority 2005, published 2008).

Holding throughout (type): in vivo, rat
The nature of assay [1]: Body weight in streptozotocin (STZ) diabetic rats. The following applies: daily s.c. D11 to D40 post-STZ; SDF-1α 10, 30, 100 μg/kg, IL-6 10 μg/kg. The protocol: (§1) Eight week-old male Sprague Dawley rats (Janvier, Le Genest Saint Isle, France) were randomly distributed in 6 experimental groups (n=10) as shown below.
(§2) Diabetes was induced by intravenous injection of a buffered solution of streptozotocin (Sigma, L'Isle d'Abeau Chesnes, France) at a dose of 55 mg/kg. STZ was prepared in 0.1 mol/l citrate buffer pH 4.5. Control group received an equivalent volume of citrate buffer. The day of STZ injection was considered as D0.
(§3) Treatment with SDF-1α, with IL-6 or their matched vehicle was performed on daily basis from D11 to D40.

Assay [2] concerns STZ-rats. The assay can be described thus: STZ diabetic neuropathy, electromyography (CMAP latency, SNCV). The following applies: D25 post-STZ (similar profile at D40), IL-6 10 μg/kg s.c.; for sensory nerve conduction velocity (SNCV) of diabetic rats: SDF-1α 10, 30, 100 μg/kg (best effect 10 and 30 μg/kg); for CMAP latency of diabetic rats vs vehicle-treated diabetic rats: SDF-1α 10, 30, 100 μg/kg. The protocol:
as §1, §2, §3
Planning of Experiments • Day −7: baseline (EMG) • Day 0: induction by the streptozotocin • Day 7: glycemia monitoring • Day 11: Onset of the treatment • Day 20: Von Frey test • Day 25: EMG monitoring • Day 40: EMG monitoring and HP 52° C. test • Day 41: sciatic nerves and skin biopsy samples were taken off for the histomorphometric analysis.
Electrophysiological recordings were performed using electromyograph (Keypoint, Medtronic, Boulogne-Billancourt, France). Rats were anaesthetized by intraperitoneal injection (IP) of 60 mg/kg ketamine chlorhydrate (Imalgene 500®, Rhône Mérieux, Lyon. France) and 4 mg/kg xylazin (Rompum 2%, Bayer Pharma, Kiel, Germany). The normal body temperature was maintained at […] with a heating lamp and controlled by a contact thermometer (Quick, Bioblock Scientific, Illkirch, France) placed on the tail surface.
Compound muscle action potential (CMAP) was recorded in the gastrocnemius muscle after stimulation of the sciatic nerve. A reference electrode and an active needle were placed in the hindpaw. A ground needle was inserted on the lower back of the rat. Sciatic nerve was stimulated with a single 0.2 ms pulse at a supramaximal intensity. The velocity of the motor wave was recorded.
Sensitive nerve conduction velocity (SNCV) was also recorded. The tail skin electrodes were placed as follows: a reference needle inserted at the base of the tail and an anode needle placed 30 mm away from the reference needle towards the extremity of the tail. A ground needle electrode was inserted between the anode and reference needles. The caudal nerve was stimulated with a series of 20 pulses (for 0.2 ms) at an intensity of 12.8 mA. The velocity was expressed in m/s.
(§4) Global analysis of the data was performed using one factor or repeated measure analysis of variance (ANOVA) and one-way ANOVA. When ANOVA indicated significant difference, Fisher Protected Least Significant Difference was used as post-hoc test to compare experimental groups with the group of diabetic rats treated with the vehicle. The level of significance was set at p≦0.05. Results are expressed as mean ±standard error of the mean (s.e.m.).

Assay [3] has as its system STZ-rats. The experiment in a line: STZ diabetic neuropathy, morphometric analysis of sciatic nerve and skin biopsy. As to conditions: day 40 post STZ; for density of intra-epidermal nerve fibers: vs vehicle. Here is the method:
Morphometric analysis was performed at the end of the study. The animals were anesthetized by IP injection of 60 mg/kg Imalgéne 500®. A 5 mm-segment of sciatic nerve was excised for histology. The tissue was fixed overnight with 4% glutaraldehyde (Sigma, L'Isle d'Abeau-Chesnes, France) solution in phosphate buffer solution (pH 7.4) and maintained in 30% sucrose at +4° C. until use. The nerve sample was fixed in 2% osmium tetroxide (Sigma) solution in phosphate buffer solution for 2 h, dehydrated in serial alcohol solution, and embedded in Epon. Embedded tissues were then placed at +70° C. during 3 days of polymerization. Transverse sections of 1.5 μm thickness were obtained using a microtome. They were stained with a 1% toluidine blue solution (Sigma) for 2 min, dehydrated and mounted in Eukitt.
Analysis was performed on the entire surface of the nerve section using a semi-automated digital image analysis software (Biocom, France). Once extraneous objects had been eliminated, the software reported the total number of myelinated fibers. The number of degenerated fibers was then counted manually by an operator. Myelinated fibers without axons, redundant myelin and fibers showing sheaths with too large thickness in respect to their axonal diameter were considered as fibers undergoing processes of degeneration. The number of non-degenerated fibers was obtained by subtraction of the number of degenerated fibers.
Morphological analysis was performed only on fibers considered as non-degenerated. For each fiber, the axonal and myelin sizes were reported in surface area (μm^2). These two parameters were used to calculate the equivalent area of g-ratio (axonal diameter/fiber diameter) of each fiber (i.e., [A/(A+M)]^0.5, A=axonal area, M=myelin area), indicative of the relative myelin sheath thickness.
In addition, a 5-10 mm diameter area of skin was punch-biopsied from the hindpaw. Skin samples were immediately fixed overnight in paraformaldehyde at 4° C., incubated (overnight) in 30% sucrose in 0.1 M PBS for cryoprotection, embedded in OCT and frozen at −80° C. until cryocut.
50 μm-thick cryosections were then cut vertical to the skin surface with a cryostat. Free-floating sections were incubated for 7 days in a bath of rabbit anti-protein gene product 9.5 (1:10000; Ultraclone, Isle of Man, UK) at 4° C. The sections were then processed to reveal immunoreactivity according to the ABC peroxidase method. Briefly, they were incubated in for 1 h with biotinylated […] antibody (1:200), then 30 min in the avidin biotinylated complex at room temperature. Peroxidase activity was visualized using DAB system. Sections were then counterstained with eosin or hematoxylin. Sections were dehydrated, clear with bioclear and mounted on eukitt. Photos of microscope fields were performed at 20× power magnification view using Nikon digital camera at focal distance of 12.9 mm. The number of intra-epidermal nerves on 3 microscope fields of […] (544×408 μm) each was counted by the experimenter on computer screen.
as §4

In assay [4] the test system is STZ-rats. The assay can be described thus: Von Frey filament test in STZ diabetic rats. As to conditions: day 20 post-STZ; SDF-1α 10, 30, 100 μg/kg, IL-6 10 μg/kg s.c. Here is the method: as §1
Diabetes was induced by intravenous injection of a buffered solution of streptozotocin (Sigma, L'Isle d'Abeau Chesnes, France) at a dose of 55 mg/kg. STZ was prepared in 0.1 mol/l citrate buffer pH 4.5. The control group received an equivalent volume of citrate buffer. The day of STZ injection was considered as D0.
Treatment with SDF-1α with IL-6 or their matched vehicle was performed on daily basis from D11 to D40.
The rat was placed on a metallic grid floor. The nociceptive testing was done by inserting the Von Frey filament (Bioseb, France) through the grid floor and applying it to the plantar surface of the hind paw. A trial consisted of several applications of the different von Frey filaments (at a frequency of 1-1.5 s). The Von Frey filaments were applied from filament 10 g to 180 g. The pressure that produces a brisk withdrawal of hind paw was considered as threshold value. Cuttoff value was set to 180 g.

The mark [5] stands for this setting: SDF-1α 10, 30, 100 μg/kg, IL-6 10 μg/kg s.c.
The mark [6] stands for this setting: SDF-1α especially 10 or 30 μg/kg, IL-6 10 μg/kg s.c.

With “IL-6: reference (positive) control compound in nerve crush and STZ models [reference compound]”, the “body weight of diabetic rats” value in assay [1] is “slight but significant increase”. In the assay with STZ-rats [2], the “sensory nerve conduction velocity (SNCV) of diabetic rats” value is on record as “significantly improved” and the “CMAP latency of diabetic rats vs vehicle-treated diabetic rats” value is reported as “significant reduction”. Further, in the assay on STZ-rats [3] (setting [5]), the “number of degenerated fibers in the sciatic nerve” value (“number of degenerated fibers” for short) is reported as “significantly reduced population of degenerated fibers” and the “density of intra-epidermal nerve fibers” value was “markedly prevented”. Moreover, the “g-ratio (relative myelin thickness) vs STZ/Vehicle group” value in the assay with STZ-rats [3] (setting [6]) was “significant reduction”. For the same substance, the “threshold value in Von Frey test vs vehicle-treated diabetic rats” value with STZ-rats [4] is given as “significant increase”.

On to “SDF-1α: Human recombinant chemokine SDF-1α (SEQ ID NO: 1), produced in house, expressed in E. Coli cells”, for which the “body weight of diabetic rats” value in assay [1] is recorded as “slight but significant increase”. For the same substance, in the assay with STZ-rats [2], the “sensory nerve conduction velocity (SNCV) of diabetic rats” value is listed as “significantly improved” and the “CMAP latency of diabetic rats vs vehicle-treated diabetic rats” value was “significant reduction”. Also, in the assay with STZ-rats [3] (100 μg/kg s.c.), the “g-ratio (relative myelin thickness) vs STZ/Vehicle group” value is recorded as “did not reach the significance level”. Besides, in the assay with STZ-rats [3] (setting [5]), the “number of degenerated fibers” value is “reduction of degenerated fibers population” and the “density of intra-epidermal nerve fibers” value was “significantly greater density”. Further, the “g-ratio (relative myelin thickness) vs STZ/Vehicle group” value in the assay on STZ-rats [3] (setting [6]) is given as “significantly reduced”. Besides, the “number of degenerated fibers” value in the assay on STZ-rats [3] (lowest dose 10 μg/kg s.c. (best effect)) is “reached the significance level”. Also, the “threshold value in Von Frey test vs vehicle-treated diabetic rats” value in the assay with STZ-rats [4] is recorded as “significant increase”.
